This note sets out measurements from US20130072553A1, “DRUGS, DERIVATIVES AND ANALOGS CONTAINING ADAMANTANE STRUCTURES OF NEW INDICATION APPLICATIONS OF ANTI-TUMOR” (priority 2009, published 2013).

Data set [1] deals with Human pancreatic cancer cell line Panc-1. The experiment in a line: In vitro anti-cancer cell experiment (MTT), pancreatic cancer Panc-1. Type of data set: cell-based. As for the experimental part: (§1) Cell lines: Human pancreatic cancer cell line Panc-1, human colorectal cancer cell line HT29, human lung cancer cell line NCI-H460 and human breast cancer cell line MCF7; the medium: s DMEM (Gibco BRL), containing 10% fetal calf serum (Gibco BRL) and 2 mM L-glutamine (Gibco BRL).
(§2) The samples were dissolved in dimethyl sulfoxide (DMSO, Sigma, United States) and medium was added to the final concentration of 0.5%. cyclophosphamide was as positive control (CTX, purity>96%).
(§3) Method: cells were digested with trypsin and dispersed into single cells in the medium containing penicillin (25 U/ml) and streptomycin (25 μg/ml). The cells were seeded in 96-well culture plates (Corning Incorporated), at 37° C., with 5% CO2 present for 24 hours. The culture medium was removed, 1-100 μm test compounds were added, cultured for 48 hours. Culture medium was removed and […] (MTT, USA Sigma products) was added. The result was assayed by SK601-based microplate reader (Japan Seikagaku company's products), 570 nm/630 nm optical density (OD). Cell viability determined by the formula: (Experimental group OD/control OD)×100%; CDDP and the positive control subjects treated in the same material simultaneously.

Data set [2] deals with human colorectal cancer cell line HT29. The experiment in a line: In vitro anti-cancer cell experiment (MTT), colorectal cancer HT29. Type of data set: cell-based. The protocol:
as §1, §2, §3

Data set [3] has as its system human lung cancer cell line NCI-H460. The experiment in a line: In vitro anti-cancer cell experiment (MTT), lung cancer NCI-H460. The class given is cell-based. The protocol:
as §1, §2, §3

Data set [4] relates to human breast cancer cell line MCF7. Nature of the data set: In vitro anti-cancer cell experiment (MTT), breast cancer MCF7. The class given is cell-based. The protocol: as §1, §2, §3
The test system of the next data set is mice sarcoma S180. The experiment in a line: Inhibition of the sarcoma growth S180 in mice. The note with it: for inhibition compared with positive control cyclophosphamide / inhibition rate compared with positive control 5-FU: by tumor weight, seven days; for anti-tumor efficacy in vivo: iv. Type of data set: in vivo. As for the experimental part:
Tumor strains: mice sarcoma S180 for ascites passaged from Beijing Academy of Military Medical Institute of Pharmacology.
(§4) Xenografts cultured S180 tumor cells were implanted subcutaneously into the flank region of mice and tumors were allowed to grow to the desired average size of 100 mg. The mice were randomized into control and treatment groups with 10 mice per group. The control group was injected with the vehicle used to dissolve the drug. […] Injections were I.V. via the tailvein.
(§5) The test group inoculated tumor cells […] in mice armpit, administration and observation of seven days.

Data set [5] is described as follows: Body weight of S180 tumor-bearing mice. As for the experimental part:
as §4, §5

Where [6] appears, read: Panc-1 cells, 48 hours, MTT, read-out: IC50 Pancreatic cancer Panc-1.
[7] abbreviates: Panc-1 cells, 48 hours, MTT, value (95% confidence limits), read-out: IC50 and 95% confidence limits, anti-proliferative effect on Panc-1.
[8] abbreviates: HT-29, HT29 cells, 48 hours, MTT, value (95% confidence limits), read-out: IC50 and 95% confidence limit, anti-proliferative effect on HT29.
Where [9] appears, read: HT-29 cells, 48 hours, MTT, read-out: IC50 Colorectal cancer HT-29.
Where [10] appears, read: NCI-H460 cells, 48 hours, MTT, read-out: IC50 Lung cancer NCI-H460.
[11] abbreviates: NCI-H460 cells, 48 hours, MTT, value (95% confidence limits), unit given only for CTX, read-out: IC50 and 95% confidence limits, inhibitory effect on lung cancer NCI-H460 cells.
Setting [12] is: MCF7 cells, 48 hours, MTT, read-out: IC50 Breast cancer MCF7.
Setting [13] is: MCF7 cells, 48 hours, MTT, value (95% confidence limits), unit given only for CTX, read-out: IC50 with 95% confidence limits, inhibitory effect on breast cancer MCF7 cells.
[14] abbreviates: MCF7, 48 h, read-out: IC50 with 95% confidence limits, inhibitory effect on breast cancer MCF7 cells.

Where two headings read alike, the source gives them in different places.

Turning to `CC(N)C12CC3CC(CC(C3)C1)C2` (centres unmarked) [Compound 2, Rimantadine], the IC50 came to 2.42 µM in data set [1] (setting [6]); 2.42 µg/mL in data set [1] (setting [7]); 3.92 µg/mL in data set [2] (setting [8]); 3.92 µM in data set [2] (setting [9]); 22 µM in data set [3] (setting [10]); 22 µg/mL in data set [3] (setting [11]). The IC50 in data set [4] (setting [12]) is 2.73 µM; in data set [4] (setting [13]), 2.73 µg/mL. For the same compound, the “inhibition compared with positive control cyclophosphamide” value in the data set on mice sarcoma S180 is “significantly better than the positive control group of cyclophosphamide”. The “inhibition rate compared with positive control 5-FU” value with mice sarcoma S180 is recorded as “better than the positive control group, 5-FU”. Moreover, in the data set with mice sarcoma S180, the “anti-tumor efficacy in vivo” value was “statistically significant”. In addition, the “body Weight/g After ad.” value in data set [5] (mouse, in vivo, iv) came to 26.02 ± 3.69 g. Moreover, in data set [5] (mouse, in vivo, iv), the “body Weight/g Before ad.” value is given as 19.35 ± 0.95 g.
As to `O=P1(N(CCCl)CCCl)NCCCO1` (centres unmarked) [CTX, cyclophosphamide], the IC50 in data set [1] (PANC-1, 48 h, read-out: IC50 Pancreatic cancer Panc-1) worked out at 2.23 µM; in data set [1] (PANC-1, 48 h, read-out: IC50 and 95% confidence limits, anti-proliferative effect on Panc-1) it was 2.23 µg/mL; in data set [2] (HT-29, 48 h, read-out: IC50 Colorectal cancer HT-29) it was 2.26 µM; in data set [2] (HT-29, 48 h, read-out: IC50 and 95% confidence limit, anti-proliferative effect on HT29), 2.26 µg/mL; in data set [3] (NCI-H460, 48 h, read-out: IC50 Lung cancer NCI-H460), 4.3 µM; in data set [3] (NCI-H460, 48 h, read-out: IC50 and 95% confidence limits, inhibitory effect on lung cancer NCI-H460 cells), 4.3 µg/mL. Also, the IC50 in data set [4] (MCF7, 48 h, read-out: IC50 Breast cancer MCF7) came to 0.92 µM; in data set [4] (setting [14]), 0.92 µg/mL. In addition, in data set [5] (after administration, iv, seven days, X ± SD), the “body Weight/g After ad.” value was determined as 28.22 ± 2.46 g. Besides, the “body Weight/g Before ad.” value in data set [5] (before administration (baseline), iv groups, X ± SD) was found to be 22.45 ± 0.79 g.
For the compound `COc1ccc(-c2ccc3cc(C(=O)O)ccc3c2)cc1C12CC3CC(CC(C3)C1)C2` [Compound 5, Adapalene], the IC50 in data set [1] (setting [6]) is 2.17 µM; in data set [1] (setting [7]), 2.17 µg/mL; in data set [2] (setting [8]), 0.85 µg/mL; in data set [2] (setting [9]), 0.85 µM; in data set [3] (setting [10]), 2.81 µM; in data set [3] (setting [11]) it was 2.81 µg/mL. The “inhibition compared with positive control cyclophosphamide” value in the data set with mice sarcoma S180 was “significantly better than the positive control group of cyclophosphamide”. Moreover, the “inhibition rate compared with positive control 5-FU” value with mice sarcoma S180 was “better than the positive control group, 5-FU”. In addition, the “anti-tumor efficacy in vivo” value with mice sarcoma S180 is listed as “statistically significant”. Also, in data set [5] (mouse, in vivo, iv), the “body Weight/g After ad.” value stood at 20.80 ± 3.61 g. Also, the “body Weight/g Before ad.” value in data set [5] (mouse, in vivo, iv) came to 20.27 ± 1.80 g.
Turning to `NC12CC3CC(CC(C3)C1)C2` [Compound 1, Amantadine], the IC50 is 51.3 µM in data set [1] (setting [6]); 51.3 µg/mL in data set [1] (setting [7]); 18.8 µg/mL in data set [2] (setting [8]); 18.8 µM in data set [2] (setting [9]); 5.18 µM in data set [3] (setting [10]); 5.18 µg/mL in data set [3] (setting [11]). For the same compound, the IC50 in data set [4] (setting [14]) stood at 6.18 µg/mL; in data set [4] (setting [12]) it was 6.18 µM. Moreover, the “anti-tumor efficacy in vivo” value in the data set on mice sarcoma S180 is “statistically significant”. Besides, the “body Weight/g After ad.” value in data set [5] (mouse, in vivo, iv) amounted to 27.93 ± 3.37 g. The “body Weight/g Before ad.” value in data set [5] (mouse, in vivo, iv) is 21.41 ± 2.52 g.
As to `O=c1[nH]cc(F)c(=O)[nH]1` [Compound 5-FU, 5-fluorouracil], in data set [5] (mouse, in vivo, iv), the “body Weight/g After ad.” value was found to be 29.16 ± 2.50 g and the “body Weight/g Before ad.” value amounted to 21.61 ± 1.56 g.
`CN(C)CCOCC(=O)NC12CC3CC(CC(C3)C1)C2` [Compound 4, Tromantadine]: the IC50 in data set [1] (setting [6]) was determined as 10 µM; in data set [1] (setting [7]), 10 µg/mL; in data set [2] (setting [8]), 10.2 µg/mL; in data set [2] (setting [9]), 10.2 µM; in data set [3] (setting [10]), 8.52 µM; in data set [3] (setting [11]), 8.52 µg/mL. In addition, the IC50 in data set [4] (setting [12]) came out at 67.5 µM; in data set [4] (setting [13]) it was 67.5 µg/mL. Further, the “inhibition rate compared with positive control 5-FU” value with mice sarcoma S180 was “better than the positive control group, 5-FU”. Moreover, the “anti-tumor efficacy in vivo” value with mice sarcoma S180 is on record as “statistically significant”. Further, the “body Weight/g After ad.” value in data set [5] (mouse, in vivo, iv) is listed as 28.64 ± 4.13 g. Further, in data set [5] (mouse, in vivo, iv), the “body Weight/g Before ad.” value turned out to be 21.03 ± 0.29 g.
`CC12CC3CC(C)(C1)CC(N)(C3)C2` [Compound 3, Memantine]: the IC50 in data set [1] (setting [6]) was 53 µM; in data set [1] (setting [7]) it was 53 µg/mL; in data set [2] (setting [8]), 13.1 µg/mL; in data set [2] (setting [9]), 13.1 µM; in data set [3] (setting [10]), 60.5 µM; in data set [3] (setting [11]) it was 60.5 µg/mL. Moreover, the half-maximal inhibitory concentration (IC50) is 34.3 µM in data set [4] (setting [12]) and 34.3 µg/mL in data set [4] (setting [13]). Also, the “inhibition compared with positive control cyclophosphamide” value in the data set on mice sarcoma S180 is on record as “significantly better than the positive control group of cyclophosphamide”. For the same compound, in the data set on mice sarcoma S180, the “inhibition rate compared with positive control 5-FU” value was “better than the positive control group, 5-FU”. For the same compound, the “anti-tumor efficacy in vivo” value in the data set on mice sarcoma S180 is “statistically significant”. In data set [5] (mouse, in vivo, iv), the “body Weight/g After ad.” value is recorded as 28.98 ± 1.74 g. For the same compound, the “body Weight/g Before ad.” value in data set [5] (mouse, in vivo, iv) was 21.31 ± 1.53 g.
Consider `O=C1C2CC3CC1CC(O)(C3)C2` [Compound 6, Idramantone], for which the IC50 in data set [1] (setting [6]) is 53.5 µM. For the same compound, in data set [1] (setting [7]), the IC50 is 53.5 µg/mL. For the same compound, the “anti-tumor efficacy in vivo” value with mice sarcoma S180 is recorded as “statistically significant”. Further, in data set [5] (mouse, in vivo, iv), the “body Weight/g After ad.” value is recorded as 26.30 ± 3.62 g and the “body Weight/g Before ad.” value was found to be 19.92 ± 1.47 g.

Usually IC50 stands for the concentration that inhibits the measured activity by half.
